From patent US20080146617A1, “Methods of treating inflammatory diseases” (Roche Palo Alto LLC, priority 2006, published 2008)

What was measured:
BRAF = biological target: T1, BRAF (Homo sapiens, UniProt P15056); assay: KinomeScan kinase profiling; format: binding
T1 construct: purchased Ambit Biosciences (San Diego, Calif.)
Text: (§2) The selectivity of a given CK1δ, CK1ε or CK1δ-CK1ε inhibitor compound can be determined by testing the compound against a panel of known kinases. An example of such a kinase profiling technology is the “KinomeScan” from Ambit Biosciences in which compounds can be screened for their modulatory activities against more than 200 known kinases.

BRAF(V600E) = biological target: T2, BRAF(V600E) (Homo sapiens, UniProt P15056, V600E); assay: KinomeScan kinase profiling; format: binding
T2 construct: purchased Ambit Biosciences (San Diego, Calif.)
T2 sequence (P15056 whole entry V600E): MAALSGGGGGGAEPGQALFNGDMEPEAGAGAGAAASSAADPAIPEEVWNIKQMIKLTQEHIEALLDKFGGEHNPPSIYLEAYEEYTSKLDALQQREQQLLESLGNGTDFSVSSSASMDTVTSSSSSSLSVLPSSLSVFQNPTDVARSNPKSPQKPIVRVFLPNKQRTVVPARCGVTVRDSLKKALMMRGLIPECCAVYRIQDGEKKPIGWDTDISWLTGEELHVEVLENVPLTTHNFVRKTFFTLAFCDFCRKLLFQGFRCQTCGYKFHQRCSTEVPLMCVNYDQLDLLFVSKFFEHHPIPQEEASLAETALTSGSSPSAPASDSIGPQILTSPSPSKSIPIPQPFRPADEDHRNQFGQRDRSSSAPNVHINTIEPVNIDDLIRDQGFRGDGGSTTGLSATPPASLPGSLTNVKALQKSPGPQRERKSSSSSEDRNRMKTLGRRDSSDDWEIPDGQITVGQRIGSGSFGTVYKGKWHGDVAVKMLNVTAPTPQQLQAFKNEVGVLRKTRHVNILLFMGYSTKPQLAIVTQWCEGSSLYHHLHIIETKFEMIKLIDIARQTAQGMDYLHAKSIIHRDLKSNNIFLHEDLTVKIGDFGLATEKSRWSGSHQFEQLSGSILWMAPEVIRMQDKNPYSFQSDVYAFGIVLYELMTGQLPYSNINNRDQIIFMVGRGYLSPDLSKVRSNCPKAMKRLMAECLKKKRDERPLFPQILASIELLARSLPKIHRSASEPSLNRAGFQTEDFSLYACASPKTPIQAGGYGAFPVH
Text: as §2

CDK5 = biological target: T3, CDK5 (Homo sapiens, UniProt Q00535); assay: KinomeScan kinase profiling; format: binding
T3 construct: purchased Ambit Biosciences (San Diego, Calif.)
T3 sequence (Q00535 whole entry): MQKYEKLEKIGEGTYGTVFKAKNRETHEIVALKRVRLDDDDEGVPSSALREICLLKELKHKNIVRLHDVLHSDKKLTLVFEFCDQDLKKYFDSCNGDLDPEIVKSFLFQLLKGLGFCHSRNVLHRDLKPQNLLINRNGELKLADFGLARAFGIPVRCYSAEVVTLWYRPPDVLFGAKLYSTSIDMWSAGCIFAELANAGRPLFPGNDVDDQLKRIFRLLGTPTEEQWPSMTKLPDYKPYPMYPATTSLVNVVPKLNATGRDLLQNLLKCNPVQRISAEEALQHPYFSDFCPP
Text: as §2

FGR = biological target: T4, FGR (Homo sapiens, UniProt P09769); assay: KinomeScan kinase profiling; format: binding
T4 construct: purchased Ambit Biosciences (San Diego, Calif.)
T4 sequence (P09769 whole entry): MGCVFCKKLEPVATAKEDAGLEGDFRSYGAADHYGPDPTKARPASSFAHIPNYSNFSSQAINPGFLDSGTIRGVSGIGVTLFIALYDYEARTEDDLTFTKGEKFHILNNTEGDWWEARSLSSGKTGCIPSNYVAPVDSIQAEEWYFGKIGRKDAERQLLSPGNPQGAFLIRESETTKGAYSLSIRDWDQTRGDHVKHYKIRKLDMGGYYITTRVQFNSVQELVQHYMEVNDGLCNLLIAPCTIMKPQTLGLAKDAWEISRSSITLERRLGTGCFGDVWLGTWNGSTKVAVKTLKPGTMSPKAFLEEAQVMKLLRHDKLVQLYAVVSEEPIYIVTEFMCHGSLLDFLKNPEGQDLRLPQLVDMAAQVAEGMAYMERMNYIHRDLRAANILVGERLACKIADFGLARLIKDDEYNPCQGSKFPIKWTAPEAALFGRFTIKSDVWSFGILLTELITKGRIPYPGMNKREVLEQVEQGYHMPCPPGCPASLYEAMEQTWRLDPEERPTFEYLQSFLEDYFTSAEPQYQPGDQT
Text: as §2

p38-beta = biological target: T5, p38-beta (Homo sapiens, UniProt Q15759); assay: KinomeScan kinase profiling; format: binding
T5 construct: purchased Ambit Biosciences (San Diego, Calif.)
T5 sequence (Q15759 whole entry): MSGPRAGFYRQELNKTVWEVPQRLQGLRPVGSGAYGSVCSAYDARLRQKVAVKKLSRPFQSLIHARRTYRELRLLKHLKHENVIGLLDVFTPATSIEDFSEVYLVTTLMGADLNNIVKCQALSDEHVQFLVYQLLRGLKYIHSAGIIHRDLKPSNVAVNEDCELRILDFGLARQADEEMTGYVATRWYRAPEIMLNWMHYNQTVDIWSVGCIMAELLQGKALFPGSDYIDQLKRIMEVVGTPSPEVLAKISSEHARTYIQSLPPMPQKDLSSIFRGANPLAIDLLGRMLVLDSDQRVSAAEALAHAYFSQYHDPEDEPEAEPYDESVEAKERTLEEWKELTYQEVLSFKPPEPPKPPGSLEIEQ

RPS6KA2 = biological target: T6, RPS6KA2 (Homo sapiens, UniProt Q15349); assay: KinomeScan kinase profiling; format: binding
T6 construct: purchased Ambit Biosciences
T6 sequence (Q15349 whole entry): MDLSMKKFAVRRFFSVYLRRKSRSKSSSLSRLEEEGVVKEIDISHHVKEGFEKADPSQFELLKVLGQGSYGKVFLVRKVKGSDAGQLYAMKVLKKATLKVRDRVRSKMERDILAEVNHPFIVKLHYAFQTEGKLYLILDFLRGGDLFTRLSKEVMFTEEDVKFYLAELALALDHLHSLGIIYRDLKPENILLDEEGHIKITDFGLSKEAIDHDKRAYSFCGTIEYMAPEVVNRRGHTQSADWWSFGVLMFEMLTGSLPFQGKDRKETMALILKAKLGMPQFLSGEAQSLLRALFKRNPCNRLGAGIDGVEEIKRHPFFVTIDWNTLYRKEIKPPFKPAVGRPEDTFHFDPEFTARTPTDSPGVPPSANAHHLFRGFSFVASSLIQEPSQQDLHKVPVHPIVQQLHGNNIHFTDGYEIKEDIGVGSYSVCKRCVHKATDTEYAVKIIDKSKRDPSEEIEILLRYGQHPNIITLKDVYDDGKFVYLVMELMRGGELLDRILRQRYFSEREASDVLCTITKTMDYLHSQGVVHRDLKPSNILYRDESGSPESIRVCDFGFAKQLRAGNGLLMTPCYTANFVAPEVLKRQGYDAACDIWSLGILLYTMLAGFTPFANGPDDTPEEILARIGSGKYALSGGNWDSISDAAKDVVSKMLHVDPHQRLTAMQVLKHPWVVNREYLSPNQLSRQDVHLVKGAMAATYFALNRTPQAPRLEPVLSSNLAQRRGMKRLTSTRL

RPS6KA3 = biological target: T7, RPS6KA3 (Homo sapiens, UniProt P51812); assay: KinomeScan kinase profiling; format: binding
T7 construct: purchased Ambit Biosciences
T7 sequence (P51812 whole entry): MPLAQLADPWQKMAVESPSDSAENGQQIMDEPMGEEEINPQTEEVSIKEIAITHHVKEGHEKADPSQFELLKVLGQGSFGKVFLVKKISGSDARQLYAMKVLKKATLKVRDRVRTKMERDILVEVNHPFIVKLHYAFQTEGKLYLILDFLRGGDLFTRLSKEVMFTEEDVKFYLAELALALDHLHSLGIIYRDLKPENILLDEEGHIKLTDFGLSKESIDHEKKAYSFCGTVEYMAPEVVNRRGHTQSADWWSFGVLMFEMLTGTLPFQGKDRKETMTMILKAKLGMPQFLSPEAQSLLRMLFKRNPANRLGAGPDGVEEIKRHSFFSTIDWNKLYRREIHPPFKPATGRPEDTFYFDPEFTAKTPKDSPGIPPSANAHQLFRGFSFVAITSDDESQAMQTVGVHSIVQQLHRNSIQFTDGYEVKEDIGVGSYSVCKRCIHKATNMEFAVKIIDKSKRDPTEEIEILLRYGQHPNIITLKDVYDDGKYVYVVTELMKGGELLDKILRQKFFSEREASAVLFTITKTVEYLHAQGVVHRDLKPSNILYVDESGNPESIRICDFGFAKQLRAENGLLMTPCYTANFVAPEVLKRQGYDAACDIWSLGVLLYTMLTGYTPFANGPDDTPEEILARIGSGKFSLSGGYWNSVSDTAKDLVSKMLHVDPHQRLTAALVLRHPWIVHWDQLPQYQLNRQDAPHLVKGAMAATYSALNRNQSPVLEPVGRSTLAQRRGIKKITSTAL

STK4 = biological target: T8, STK4 (Homo sapiens, UniProt Q13043); assay: KinomeScan kinase profiling; format: binding
T8 construct: purchased Ambit Biosciences
T8 sequence (Q13043 whole entry): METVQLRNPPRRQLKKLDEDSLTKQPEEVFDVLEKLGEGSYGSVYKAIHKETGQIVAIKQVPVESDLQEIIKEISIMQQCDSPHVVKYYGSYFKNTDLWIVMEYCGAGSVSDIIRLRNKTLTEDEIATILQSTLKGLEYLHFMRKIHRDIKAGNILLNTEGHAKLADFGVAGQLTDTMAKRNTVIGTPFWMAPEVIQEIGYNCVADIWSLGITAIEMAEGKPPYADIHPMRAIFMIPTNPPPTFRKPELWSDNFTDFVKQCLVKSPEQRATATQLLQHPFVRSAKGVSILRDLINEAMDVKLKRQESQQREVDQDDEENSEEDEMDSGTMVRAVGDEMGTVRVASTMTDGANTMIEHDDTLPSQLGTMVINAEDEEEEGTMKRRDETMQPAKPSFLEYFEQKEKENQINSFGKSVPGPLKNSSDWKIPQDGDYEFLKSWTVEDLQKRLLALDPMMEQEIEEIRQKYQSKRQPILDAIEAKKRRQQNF
Text: as §2

[1] = test system: IL-8 production in neutrophils; assay: Neutrophil assay: IL-8 production after stimulation by inflammatory agents; format: cell-based; settings: human neutrophils stimulated by inflammatory agents, FIG. 2
Text: (§1) Selective CK1δ, CK1ε or CK1δ-CK1ε inhibitors can be tested for their antiinflammatory effects using a variety of in vitro and in vivo tests that are well known in the art. One such in vitro test involves the application of the inhibitor to human neutrophils to observe whether the induction of inflammatory cytokines, such as IL-8, by tumor necrosis factor (TNF) or lipopolysaccharide (LPS) can be reduced. This test is further described in Example 2. An example of an in vivo test, as described in Example 3, is the air pouch model of inflammatory synovitis in mice in which the inhibitors are tested for their blockade of neutrophil influx as well as of inflammatory cytokine accumulation.
The Histopaque 1077 and 1119 gradient density centrifugation method (Sigma-Aldrich) was used to isolate granulocytes from human blood. The granulocytes were recovered from the 1077/1119 interphase, washed twice with PBS. The red blood cells were lysed with PureGene red cell lysis buffer (Gentra Biosystems). The cells were washed again and resuspended in growth media (RPMI, 10% FBS, β-mercaptoethanol, Pen/Strep/glutamine and sodium pyruvate) at a density of 1 to 5 million per ml. […] The supernatant was analyzed for cytokine production (Luminex human 22-plex assay) and the cells were lysed for RNA production and analysis.

inflammatory synovitis = assay: Air pouch synovitis model; format: in vivo, Balbc/J mice; settings: 1 μg LPS, FIG. 3
Text: as §1
Adult Balbc/J mice were purchased from Charles River Labs and housed and utilized according IACUC protocols and standards. The airpouch was inflated on the dorsal surface of each mouse with 3 ml of air, after light anesthesia with CO2/O2 mix. Three days later each pouch was re-inflated with 3 mls of air. After an additional three days, the pouches were injected with vehicle or compound (normally in 0.1% DMSO in PBS) in 1 ml per pouch. After 20 to 30 minutes, each pouch received 1 μg of LPS or control (PBS). The animals were euthanized four to six hours later. The pouches were flushed with 2 ml of PBS, the cells were then collected, counted and normalized for volume recovered. The fluid recovered was analyzed for cytokine production (Luminex Mouse 21-plex assay). The cells were lysed for RNA or protein analysis.

T1 sequence (P15056 whole entry): as the sequence (P15056 whole entry V600E) above, with E600V counted along it

NC(=O)c1ccc(-c2nc(-c3ccc4c(c3)OCCO4)c(-c3ccccn3)[nH]2)cc1 [D4476, 4-[4-(2,3-Dihydro-benzo[1,4]dioxin-6-yl)-5-pyridin-2-yl-1H-imidazol-2-yl]benzamide]
< 50%: inhibition at 10 µM (BRAF) | inhibition at 10 µM (BRAF(V600E)) | inhibition at 10 µM (CDK5) | inhibition at 10 µM (FGR) | inhibition at 10 µM (p38-beta) | inhibition at 10 µM (RPS6KA2) | inhibition at 10 µM (RPS6KA3) | inhibition at 10 µM (STK4)

NC(=O)c1ccc(-c2nc(-c3ccc4c(c3)OCO4)c(-c3ccccn3)[nH]2)cc1 [SB431542, 4-(4-benzo-[1,3]dioxol-5-yl-5-pyridin-2-yl-1H-imidazol-2-yl)benzamide]
dose-dependent inhibition: inhibition of IL-8 production in neutrophils [1]
< 50%: inhibition at 10 µM (CDK5) | inhibition at 10 µM (FGR) | inhibition at 10 µM (p38-beta) | inhibition at 10 µM (RPS6KA2) | inhibition at 10 µM (RPS6KA3) | inhibition at 10 µM (STK4)
inhibited: production of IL-6 (inflammatory synovitis; mouse air pouch fluid) | production of MCP1 (inflammatory synovitis; mouse air pouch fluid) | neutrophil influx (inflammatory synovitis; mouse air pouch, compound injected into pouch)
